Here are results for eight molecules from patent US5100797A, “Fucosidase inhibitors” (priority 1989, dated 1992).

For one data set, the system named is α-glucosidase. The note with it: Kite et al. 1988; cited from earlier work.
The subject of data set [1] is mammalian α-L-fucosidases. To be noted: background statement; cited from earlier work.
A further data set in a line: pKa of inhibitors. In kind it is physicochemical.
Data set [2] addresses T1, human liver α-L-fucosidase (Homo sapiens, UniProt P04066).
T1 construct: The resultant supernatant was used as the source of human glycosidases; from tissue; host or cells: post-mortem human liver, 37,000 g supernatant of homogenate
T1 sequence (P04066 32-466): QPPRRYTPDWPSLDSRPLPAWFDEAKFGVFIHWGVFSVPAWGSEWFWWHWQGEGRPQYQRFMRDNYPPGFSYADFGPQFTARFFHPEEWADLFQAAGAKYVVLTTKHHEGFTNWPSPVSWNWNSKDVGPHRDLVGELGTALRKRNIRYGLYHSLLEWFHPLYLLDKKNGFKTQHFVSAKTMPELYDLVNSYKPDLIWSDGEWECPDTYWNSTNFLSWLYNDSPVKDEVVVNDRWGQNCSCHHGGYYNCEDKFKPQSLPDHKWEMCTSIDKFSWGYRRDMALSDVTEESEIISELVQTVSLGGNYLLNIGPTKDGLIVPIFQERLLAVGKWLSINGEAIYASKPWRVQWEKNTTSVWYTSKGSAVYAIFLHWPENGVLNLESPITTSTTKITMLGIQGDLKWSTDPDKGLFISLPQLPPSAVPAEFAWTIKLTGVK
Kind of data set: Inhibition of human liver α-L-fucosidase (4-umbelliferyl glycoside substrate, Dixon plot). In kind it is biochemical. The note with it: for fucosidase inhibition, in words: human liver α-L-fucosidase; for Ki: human liver extract, 4-umbelliferyl substrate 0.5 mM, Dixon graphical procedure. The method, then:
Post-mortem human liver, which had been stored at -20° C. until required was homogenized in deionized water (50%, w/v) in a Potter-Elvehjem homogenizer and then centrifuged at 37,000 g for 30 min in an MSE 18 centrifuge. The resultant supernatant was used as the source of human glycosidases.
The specificity of the inhibitors was determined by assaying the glycosidases in the presence of and absence of a 1 mM solution of each compound. […] The Lineweaver-Burk graphical procedure and secondary plots of the slope against inhibitor concentration were used to determine the nature of inhibition and the values of Ki for these activities.

The next data set concerns the target T2, β-D-galactosidase (Homo sapiens, UniProt P16278).
T2 construct: 4-umbelliferyl glycoside substrate
T2 sequence (P16278 29-677): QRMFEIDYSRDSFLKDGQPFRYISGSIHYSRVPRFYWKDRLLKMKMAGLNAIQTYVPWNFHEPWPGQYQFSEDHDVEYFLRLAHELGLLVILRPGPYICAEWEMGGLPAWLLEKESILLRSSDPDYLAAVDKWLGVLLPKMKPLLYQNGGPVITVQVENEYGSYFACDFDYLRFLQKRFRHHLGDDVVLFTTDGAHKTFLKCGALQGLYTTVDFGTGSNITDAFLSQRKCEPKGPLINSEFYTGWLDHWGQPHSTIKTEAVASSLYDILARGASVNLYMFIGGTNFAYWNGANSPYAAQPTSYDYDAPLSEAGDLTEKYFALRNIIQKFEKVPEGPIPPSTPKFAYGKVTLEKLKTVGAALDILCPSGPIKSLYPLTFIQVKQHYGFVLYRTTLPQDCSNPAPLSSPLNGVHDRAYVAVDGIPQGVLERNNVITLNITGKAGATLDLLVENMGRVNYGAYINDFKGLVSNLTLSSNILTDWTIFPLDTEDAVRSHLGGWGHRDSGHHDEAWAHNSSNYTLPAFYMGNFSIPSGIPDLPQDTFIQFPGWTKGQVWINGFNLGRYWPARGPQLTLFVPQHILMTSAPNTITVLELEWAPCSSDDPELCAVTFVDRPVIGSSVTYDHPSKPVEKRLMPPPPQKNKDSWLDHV
Kind of data set: Glycosidase specificity in human liver extract: β-D-galactosidase. In kind it is biochemical. The note with it: read-out: Other specificities (% inhibition at 1 mM): β-D-galactosidase, 1 mM compound. The method, then:
(§1) Post-mortem human liver, which had been stored at -20° C. until required was homogenized in deionized water (50%, w/v) in a Potter-Elvehjem homogenizer and then centrifuged at 37,000 g for 30 min in an MSE 18 centrifuge. The resultant supernatant was used as the source of human glycosidases. A lyophilized extract of liver from Charonia lampas was obtained from Seikagaku Kogyo Co., Japan for the isolation of α-L-fucosidase by the published procedure of Iijima and Egami, J. Biochem. 70, 75-78 (1971).
(§2) The glycosidase activities in an extract of human liver were assayed by using the appropriate fluorigenic 4-umbelliferyl glycoside substrate (Koch-Light, Haverhill, Suffolk, U.K.) with a concentration of 0.5 mM at the optimal pH for each enzyme [Burditt et al., Biochem. J. 189, 467-473 (1980)]. The specificity of the inhibitors was determined by assaying the glycosidases in the presence of and absence of a 1 mM solution of each compound. The nature of the inhibition of human α-L-fucosidase, the value of Ki determined by using the Dixon graphical procedure and the effect of pH on the inhibition were investigated as described previously by Al Daher et al., Biochem. J. 258, 613-615 (1989). […]

The target of data set [3] is Charonia lampas α-L-fucosidase. The data set can be described thus: Inhibition of Charonia lampas α-L-fucosidase (Lineweaver-Burk). In kind it is biochemical. The note with it: para-nitrophenyl-α-L-fucopyranoside; sodium acetate buffer pH 4.5, 0.15 M NaCl; read-out: Ki (M) C. lampas α-L-fucosidase. The method, then: as §1
(§3) The glycosidase activities in an extract of human liver were assayed by using the appropriate fluorigenic 4-umbelliferyl glycoside substrate (Koch-Light, Haverhill, Suffolk, U.K.) with a concentration of 0.5 mM at the optimal pH for each enzyme [Burditt et al., Biochem. J. 189, 467-473 (1980)]. The specificity of the inhibitors was determined by assaying the glycosidases in the presence of and absence of a 1 mM solution of each compound. The nature of the inhibition of human α-L-fucosidase, the value of Ki determined by using the Dixon graphical procedure and the effect of pH on the inhibition were investigated as described previously by Al Daher et al., Biochem. J. 258, 613-615 (1989). Bovine epididymal and Charonia lampas α-L-fucosidase were assayed using para-nitrophenyl-α-L-fucopyranoside as substrate in phosphate-citrate buffer (McIlvaine), pH 6.0, and 0.005 M-sodium acetate buffer, pH 4.5 containing 0.15 M NaCl, respectively. The Lineweaver-Burk graphical procedure and secondary plots of the slope against inhibitor concentration were used to determine the nature of inhibition and the values of Ki for these activities.

For data set [4], the target named is T3, Bovine epididymal α-L-fucosidase (Bos taurus, UniProt Q2KIM0).
T3 construct: Bovine epididymal and Charonia lampas α-L-fucosidase were assayed; from tissue; host or cells: bovine epididymis
T3 sequence (Q2KIM0 23-468): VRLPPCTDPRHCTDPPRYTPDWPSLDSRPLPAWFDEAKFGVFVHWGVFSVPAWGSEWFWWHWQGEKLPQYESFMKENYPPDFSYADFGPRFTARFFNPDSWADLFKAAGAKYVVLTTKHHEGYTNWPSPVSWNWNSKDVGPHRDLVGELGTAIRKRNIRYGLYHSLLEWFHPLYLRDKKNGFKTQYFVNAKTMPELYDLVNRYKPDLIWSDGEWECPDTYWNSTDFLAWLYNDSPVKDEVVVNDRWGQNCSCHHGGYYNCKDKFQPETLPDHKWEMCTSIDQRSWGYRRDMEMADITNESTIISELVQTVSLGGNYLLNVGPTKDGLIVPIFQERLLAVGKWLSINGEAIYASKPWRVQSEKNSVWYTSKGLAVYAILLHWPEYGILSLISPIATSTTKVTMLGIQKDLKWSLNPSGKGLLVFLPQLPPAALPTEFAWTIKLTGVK
The data set can be described thus: Inhibition of bovine epididymal α-L-fucosidase (Lineweaver-Burk). In kind it is biochemical. To be noted: para-nitrophenyl-α-L-fucopyranoside; phosphate-citrate buffer pH 6.0; read-out: Ki (M) Bovine epididymis α-L-fucosidase. As to the method:
as §3

Data set [5] deals with N-acetyl-β-D-hexosaminidase. Kind of data set: Glycosidase specificity in human liver extract: N-acetyl-β-D-hexosaminidase. Format: biochemical. The note with it: 1 mM compound. As to the method: as §1, §3
In another data set the target is T4, α-D-mannosidase (Homo sapiens, UniProt O00754).
T4 construct: The resultant supernatant was used as the source of human glycosidases; from tissue; host or cells: post-mortem human liver, 37,000 g supernatant of homogenate
T4 sequence (O00754 50-601 limits assumed): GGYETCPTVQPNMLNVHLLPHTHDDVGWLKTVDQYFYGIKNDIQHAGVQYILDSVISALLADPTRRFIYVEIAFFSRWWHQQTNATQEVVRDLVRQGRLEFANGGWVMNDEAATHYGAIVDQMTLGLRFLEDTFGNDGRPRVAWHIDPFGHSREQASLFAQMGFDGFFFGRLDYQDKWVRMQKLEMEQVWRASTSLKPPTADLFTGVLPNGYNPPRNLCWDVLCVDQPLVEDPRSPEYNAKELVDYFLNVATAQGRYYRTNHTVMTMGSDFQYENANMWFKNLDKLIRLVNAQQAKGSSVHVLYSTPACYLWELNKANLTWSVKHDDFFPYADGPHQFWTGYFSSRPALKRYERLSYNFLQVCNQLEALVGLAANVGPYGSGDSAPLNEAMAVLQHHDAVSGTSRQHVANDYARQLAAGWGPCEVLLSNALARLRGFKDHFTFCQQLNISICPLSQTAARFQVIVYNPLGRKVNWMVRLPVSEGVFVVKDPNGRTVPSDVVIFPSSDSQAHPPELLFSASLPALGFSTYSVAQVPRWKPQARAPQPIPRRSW
T4 sequence (O00754 602-882 limits assumed): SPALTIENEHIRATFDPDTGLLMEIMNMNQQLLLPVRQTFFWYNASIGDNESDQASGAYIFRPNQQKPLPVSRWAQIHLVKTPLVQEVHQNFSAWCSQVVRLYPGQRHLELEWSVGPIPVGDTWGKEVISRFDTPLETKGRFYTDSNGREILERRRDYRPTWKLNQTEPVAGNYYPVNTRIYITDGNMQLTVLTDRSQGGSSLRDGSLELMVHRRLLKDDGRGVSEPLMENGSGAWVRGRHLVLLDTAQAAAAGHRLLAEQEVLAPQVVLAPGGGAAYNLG
T4 sequence (O00754 883-1011 limits assumed): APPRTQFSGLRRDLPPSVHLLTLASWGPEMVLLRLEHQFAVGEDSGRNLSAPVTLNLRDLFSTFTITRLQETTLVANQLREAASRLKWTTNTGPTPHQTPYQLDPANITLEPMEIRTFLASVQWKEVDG
The data set can be described thus: Glycosidase specificity in human liver extract: α-D-mannosidase. Format: biochemical. As to the method: as §1, §2

Regarding `OC[C@H]1NC[C@H](O)[C@@H](O)[C@@H]1O` [Compound 1, deoxynojirimycin], the “inhibition of α-glucosidase activity, in words” value in the data set with α-glucosidase was “potent inhibitors of α-glucosidase activity”.
On to `OC[C@H]1N[C@H](CO)[C@@H](O)[C@H](O)[C@H]1O` [Compound 2, α-homonojirimycin], for which the “inhibition of α-glucosidase activity, in words” value in the data set with α-glucosidase is listed as “potent inhibitors of α-glucosidase activity”.
Consider `C[C@@H]1NC[C@@H](O)[C@H](O)[C@@H]1O` [Compound 4, 1,5-Dideoxy-1,5-imino-L-fucitol], for which the “inhibition of mammalian α-L-fucosidases, in words” value in data set [1] is “very powerful and highly specific inhibitor”.
In general, pKa refers to the negative logarithm of the acid dissociation constant. Higher therefore signals a group that holds its proton tightly. The inhibition is the drop in the measured response relative to a control, in per cent. As usually defined, the Ki is the dissociation constant of the complex between target and ligand, obtained from inhibition or displacement. The molecule `C[C@@H]1N[C@H](CO)[C@@H](O)[C@H](O)[C@@H]1O` [Compound 7, 2,6-Imino-2,6,7-trideoxy-L-glycero-D-mannohepitol] gave a pKa in “pKa of inhibitors” of 7.1. In addition, the “fucosidase inhibition, in words” value in [2] is listed as “did not diminish the inhibition of α-L-fucosidase”. Further, the inhibition at 1000 µM on β-D-galactosidase turned out to be 27%. In addition, the Ki in data set [3] was found to be 1.4e-07 M; in data set [4], 2e-08 M.
For `CC[C@@H]1N[C@H](CO)[C@@H](O)[C@H](O)[C@@H]1O` [Compound 8, β-1-C-Ethyl Deoxymannojirimycin], in data set [5], the “Other specificities (% inhibition at 1 mM): N-acetyl-β-D-hexosaminidase” value was determined as 36%. The same molecule returned a pKa in the data set “pKa of inhibitors” of 7.8. In addition, the results for the Ki in [2], in data set [3] and in [4] were 0.07 µM, 5.8e-07 M and 2e-06 M, respectively. In [2], the “fucosidase inhibition, in words” value is given as “very powerful fucosidase inhibitor”.
On to `OC[C@H]1N[C@@H](c2ccccc2)[C@@H](O)[C@@H](O)[C@@H]1O` [Compound 9, β-1-C-Phenyl Deoxymannojirimycin], for which the “Other specificities (% inhibition at 1 mM): N-acetyl-β-D-hexosaminidase” value in data set [5] is reported as 50%. Moreover, the pKa in the data set “pKa of inhibitors” turned out to be 6.3. In addition, the Ki worked out at 1 µM in data set [2], 0.002 M in data set [3] and 5.5e-06 M in data set [4]. Besides, the “fucosidase inhibition, in words” value in data set [2] was “more potent fucosidase inhibitor than is DMJ (10)”.
Consider `OC[C@H]1NC[C@@H](O)[C@@H](O)[C@@H]1O` [Compound 10, deoxymannojirimycin], for which, in “pKa of inhibitors”, the pKa turned out to be 7.2. Besides, at α-D-mannosidase, the “inhibition of mannosidase activity, in words” value is recorded as “showed any inhibition of mannosidase activity”. For the same molecule, the inhibition at 1000 µM at α-D-mannosidase (read-out: Other specificities (% inhibition at 1 mM): α-D-mannosidase, human liver extract, 1 mM compound) came out at 64%.
As for `C[C@H]1[C@@H](O)[C@@H](O)[C@H](O)CN1C` [MeFDJ, reference compound], in data set [5], the “Other specificities (% inhibition at 1 mM): N-acetyl-β-D-hexosaminidase” value is reported as 59%. Moreover, the pKa in the data set “pKa of inhibitors” came to 7.8. This molecule also registered an inhibitory constant (Ki) in data set [2] of 0.05 µM.
